From article PMC9760430, “A stapled chromogranin A-derived peptide homes in on tumors that express αvβ6 or αvβ8 integrins” (International Journal of Biological Sciences, 2023)
Peptide text beside a SMILES is read from it. * marks the point of attachment. X1 = CC1(C)C(/C=C/C2=C(Oc3ccc(S(=O)(=O)O)cc3)C(=C\C=C3/N(CCCCCC(=O)NCCN4C(=O)CC(*)C4=O)c4ccc(S(=O)(=O)O)cc4C3(C)C)/CCC2)=[N+](CCCCS(=O)(=O)O)c2ccc(S(=O)(=O)[O-])cc21

Biological target: T1, murine αvβ6 (Mus musculus, UniProt P43406+Q9Z0T9)
T1 construct: purchased Bio-Techne
T1 sequence (P43406 31-988 limits assumed): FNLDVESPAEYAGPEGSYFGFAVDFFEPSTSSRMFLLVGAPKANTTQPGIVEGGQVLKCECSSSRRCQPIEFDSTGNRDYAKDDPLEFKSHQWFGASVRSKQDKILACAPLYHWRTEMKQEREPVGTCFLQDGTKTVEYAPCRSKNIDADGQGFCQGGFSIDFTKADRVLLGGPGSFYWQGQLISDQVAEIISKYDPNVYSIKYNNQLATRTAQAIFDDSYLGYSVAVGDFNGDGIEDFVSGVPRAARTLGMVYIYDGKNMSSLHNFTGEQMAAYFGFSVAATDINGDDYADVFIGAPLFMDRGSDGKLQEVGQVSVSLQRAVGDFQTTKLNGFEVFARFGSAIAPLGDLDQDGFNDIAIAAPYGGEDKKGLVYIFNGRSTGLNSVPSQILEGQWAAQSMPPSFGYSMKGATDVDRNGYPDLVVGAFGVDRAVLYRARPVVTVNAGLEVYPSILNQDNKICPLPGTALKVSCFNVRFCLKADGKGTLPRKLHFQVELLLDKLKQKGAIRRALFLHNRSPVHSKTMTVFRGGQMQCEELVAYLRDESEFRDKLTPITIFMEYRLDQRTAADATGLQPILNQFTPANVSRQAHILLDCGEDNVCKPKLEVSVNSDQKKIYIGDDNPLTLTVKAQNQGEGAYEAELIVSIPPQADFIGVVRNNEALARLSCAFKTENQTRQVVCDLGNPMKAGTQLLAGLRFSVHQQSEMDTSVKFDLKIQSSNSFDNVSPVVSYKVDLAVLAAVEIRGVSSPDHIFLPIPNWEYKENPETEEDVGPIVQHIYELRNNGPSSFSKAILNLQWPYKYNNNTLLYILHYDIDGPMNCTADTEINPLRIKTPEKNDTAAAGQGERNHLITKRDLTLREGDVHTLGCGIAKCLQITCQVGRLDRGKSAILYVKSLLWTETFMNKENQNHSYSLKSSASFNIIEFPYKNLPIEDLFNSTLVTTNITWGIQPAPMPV
T1 sequence (Q9Z0T9 22-707 limits assumed): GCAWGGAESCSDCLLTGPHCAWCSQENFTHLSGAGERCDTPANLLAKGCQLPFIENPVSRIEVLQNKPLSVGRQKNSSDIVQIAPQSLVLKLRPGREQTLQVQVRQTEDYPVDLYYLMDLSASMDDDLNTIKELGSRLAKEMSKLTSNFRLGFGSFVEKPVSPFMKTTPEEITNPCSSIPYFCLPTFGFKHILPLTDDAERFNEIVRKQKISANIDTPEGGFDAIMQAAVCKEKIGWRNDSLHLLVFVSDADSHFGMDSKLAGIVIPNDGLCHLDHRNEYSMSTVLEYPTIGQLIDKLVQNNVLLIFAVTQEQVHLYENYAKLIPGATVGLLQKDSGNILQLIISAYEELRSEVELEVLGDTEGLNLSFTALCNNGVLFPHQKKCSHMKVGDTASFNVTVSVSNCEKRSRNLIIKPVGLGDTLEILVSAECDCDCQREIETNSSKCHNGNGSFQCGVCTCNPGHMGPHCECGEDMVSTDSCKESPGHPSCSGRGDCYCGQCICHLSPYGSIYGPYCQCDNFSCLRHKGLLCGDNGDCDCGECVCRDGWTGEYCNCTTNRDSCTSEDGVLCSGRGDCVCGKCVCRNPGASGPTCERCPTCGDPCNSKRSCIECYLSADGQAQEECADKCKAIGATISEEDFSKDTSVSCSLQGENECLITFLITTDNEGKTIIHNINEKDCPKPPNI
Experiment: direct integrin binding assay of peptide-IRDye conjugates, murine αvβ6-coated plates
Details: plates coated with recombinant murine αvβ6; conjugate 0.01-100 nM, 1 h; bound NIR fluorescence; mean ± SE, n = 3 experiments
Protocol: The affinity of peptide-IRDye conjugates for αvβ6 and αvβ8 integrins was determined by a direct binding assay using microtiter plates coated with αvβ6 or αvβ8 (Bio-Techne). After 1 h of incubation, the plates were washed; bound fluorescence was quantified by scanning the plates with an Odyssey CLx near-infrared fluorescence imaging system (LI-COR).
A control conjugate with a cysteine in place of the peptide was also prepared in parallel. The identity of the purified products, called 5a-IRDye, 2a-IRDye, and Cys-IRDye, was confirmed by mass spectrometry analysis (Table S1). In addition, the purity and identity of 5a-IRDye was monitored by liquid chromatography–mass spectrometry (LC-MS). […]
that the product consist of a single peak at 230 and 735 nm with the expected molecular weight (purity >95%) (Figure S3A).
The simplified molecular-input line-entry system (SMILES) of 5a-, 2a-, Cys- and 5a-Scr- […]
The concentration of each conjugate was quantified by spectrophotometric analysis at 774 nm (molar absorption coefficient, 240,000 M-1, cm-1) (Figure S3B). The final yield of 5a-IRDye […]
Binding of peptide-IRDye conjugates to avb6 and avb8 integrin
The binding affinity of peptide-IRDye conjugates for human and murine avb6 and avb8 integrins was determined as follows: 96-well clear-bottom black microtiter plates (Corning® cat. 3601) were coated with 2 μg/ml avb6 or avb8 (50 µl/well), in Dulbecco’s phosphate-buffered saline containing Ca2+ and Mg2+ (DPBS) and left to incubate overnight at 4°C. […]
The binding of peptide-IRDye conjugates to BxPC-3, 5M7101, and HUVECs cells was analyzed as follows. […]
conjugates were added to the microtiterplates and incubated at room temperature for 1 h (see Experimental Section). After washing, bound fluorescence was measured using an Odyssey CLx (LI-COR) scanner. Representative images of the scanned plates and quantification of binding are shown. […]

Row | EC50 [nM] | SMILES
1 | > 100 | CC[C@H](C)[C@H](NC(=O)[C@H](CCCNC(=N)N)NC(=O)[C@H](CCC(=O)O)NC(=O)[C@H](CCC(=O)O)NC(=O)CNC(=O)[C@H](CCCNC(=N)N)NC(=O)[C@H](CC(C)C)NC(=O)[C@@H](NC(=O)[C@H](CCC(=O)O)NC(=O)[C@H](Cc1ccccc1)NC(=O)[C@@H](N)CSC1CC(=O)N(CCNC(=O)CCCCCN2/C(=C\C=C3\CCCC(/C=C/C4=[N+](CCCCS(=O)(=O)O)c5ccc(S(=O)(=O)[O-])cc5C4(C)C)=C3Oc3ccc(S(=O)(=O)O)cc3)C(C)(C)c3cc(S(=O)(=O)O)ccc32)C1=O)[C@@H](C)O)C(=O)N[C@@H](CC(C)C)C(=O)N[C@@H](CO)C(=O)N[C@H](C(=O)N[C@@H](CC(C)C)C(=O)N[C@@H](CCCNC(=N)N)C(=O)N[C@@H](Cc1c[nH]cn1)C(=O)N[C@@H](CCC(N)=O)C(=O)N[C@@H](CC(N)=O)C(=O)N[C@@H](CC(C)C)C(=O)N[C@@H](CC(C)C)C(=O)N[C@@H](CCCCN)C(=O)N[C@@H](CCC(=O)O)C(=O)N[C@@H](CC(C)C)C(=O)N[C@@H](CCC(N)=O)C(=O)N[C@@H](CC(=O)O)C(N)=O)[C@@H](C)CC (stereo partly drawn) [2a-IRDye] (H-C(X1)FETLRGEERILSILRHQNLLKELQD-NH2)
2 | 0.9 ± 0.35 | CC[C@H](C)[C@H](NC(=O)[C@H](CCCNC(=N)N)NC(=O)[C@H](CC(C)C)NC(=O)[C@H](CC(=O)O)NC(=O)CNC(=O)[C@H](CCCNC(=N)N)NC(=O)[C@H](CC(C)C)NC(=O)[C@@H](NC(=O)[C@H](CCC(=O)O)NC(=O)[C@H](Cc1ccccc1)NC(=O)[C@@H](N)CSC1CC(=O)N(CCNC(=O)CCCCCN2C(=CC=C3CCCC(C=CC4=[N+](CCCCS(=O)(=O)[O-])c5ccc(S(=O)(=O)O)cc5C4(C)C)=C3Oc3ccc(S(=O)(=O)O)cc3)C(C)(C)c3cc(S(=O)(=O)O)ccc32)C1=O)[C@@H](C)O)C(=O)N[C@@H](CC(C)C)C(=O)N[C@@H](CO)C(=O)N[C@H](C(=O)N[C@@H](CC(C)C)C(=O)N[C@@H](CCCNC(=N)N)C(=O)N[C@H]1Cc2cn(nn2)CCCC[C@@H](C(=O)N[C@@H](CCCCN)C(=O)N[C@@H](CCC(=O)O)C(=O)N[C@@H](CC(C)C)C(=O)N[C@@H](CCC(N)=O)C(=O)N[C@@H](CC(=O)O)C(N)=O)NC(=O)[C@H](CC(C)C)NC(=O)[C@H](CC(N)=O)NC(=O)[C@H](CCC(N)=O)NC1=O)[C@@H](C)CC (stereo partly drawn) [5a-IRDye]
3 | > 100 | CC1(C)C(/C=C/C2=C(Oc3ccc(S(=O)(=O)O)cc3)C(=C\C=C3/N(CCCCCC(=O)NCCN4C(=O)CC(SC[C@H](N)C(=O)O)C4=O)c4ccc(S(=O)(=O)O)cc4C3(C)C)/CCC2)=[N+](CCCCS(=O)(=O)O)c2ccc(S(=O)(=O)[O-])cc21 (stereo partly drawn) [Cys-IRDye]
